Several values for one entry are separate records, joined by “and”; a condition that tells them apart may be missing. Identical values can stand only once.
Tests used:
[1] = xn = mol fraction of the nth substance listed; conditions: 101.3 kPa, Liquid, Vibrating tube method
[2] = 101.3 kPa, Liquid, Vibrating tube method

C1COCCO1 [1,4-dioxane] + CC(C)O
mass density [kg/m3], [1]
Conditions | 288.15 K | 298.15 K | 308.15 K | 318.15 K
x1 = 0.05 | 802.95 | 794.39 | 785.56 | 776.41
x1 = 0.15 | 829.25 | 820.23 | 810.98 | 801.46
x1 = 0.25 | 855.23 | 845.83 | 836.22 | 826.38
x1 = 0.35 | 880.71 | 870.97 | 861.05 | 850.93
x1 = 0.449 | 905.45 | 895.43 | 885.24 | 874.87
x1 = 0.5 | 918.21 | 908.04 | 897.73 | 887.25
x1 = 0.55 | 930.47 | 920.18 | 909.74 | 899.16
x1 = 0.651 | 955.14 | 944.61 | 933.97 | 923.2
x1 = 0.75 | 979.12 | 968.37 | 957.54 | 946.6
x1 = 0.85 | 1003.42 | 992.5 | 981.49 | 970.39
x1 = 0.95 | 1027.3 | 1016.17 | 1004.99 | 993.74
x1 = 1 | 1039.12 | 1027.84 | 1016.57 | 1005.29

C1COCCO1 [1,4-dioxane]
[2]
Conditions | mass density [kg/m3]
288.15 K | 1039.12
298.15 K | 1027.84
308.15 K | 1016.57
318.15 K | 1005.29

C1COCCO1 [1,4-dioxane] + ClCCCl
[1], x1 = 1
Conditions | mass density [kg/m3]
288.15 K | 1039.12
298.15 K | 1027.84
308.15 K | 1016.57
318.15 K | 1005.29

CC(C)O [propan-2-ol] + ClCCCl
[1], x1 = 1
Conditions | mass density [kg/m3]
288.15 K | 789.68
298.15 K | 781.08
308.15 K | 772.48
318.15 K | 763.88

CC(C)O [propan-2-ol] + C1COCCO1
[1], x2 = 0
Conditions | mass density [kg/m3]
288.15 K | 789.68
298.15 K | 781.08
308.15 K | 772.48
318.15 K | 763.88

CCCO [propan-1-ol] + ClCCCl
[1], x1 = 1
Conditions | mass density [kg/m3]
288.15 K | 807.86
298.15 K | 799.78
308.15 K | 791.71
318.15 K | 783.64

CCCO [propan-1-ol] + C1COCCO1
[1], x2 = 0
Conditions | mass density [kg/m3]
288.15 K | 807.86
298.15 K | 799.78
308.15 K | 791.71
318.15 K | 783.64

CC(C)O [propan-2-ol]
[2]
Conditions | mass density [kg/m3]
288.15 K | 789.68
298.15 K | 781.08
308.15 K | 772.48
318.15 K | 763.88

CCCO [propan-1-ol]
[2]
Conditions | mass density [kg/m3]
288.15 K | 807.86
298.15 K | 799.78
308.15 K | 791.71
318.15 K | 783.64

ClCCCl [1,2-dichloroethane]
[2]
Conditions | mass density
288.15 K | 1260.35 kg/m3
298.15 K | 1245.75 kg/m3 and 1245.76 kg/m3
308.15 K | 1231.16 kg/m3
318.15 K | 1216.56 kg/m3

ClCCCl [1,2-dichloroethane] + C1COCCO1
mass density [kg/m3], [1]
Conditions | 288.15 K | 298.15 K | 308.15 K | 318.15 K
x2 = 0 | 1260.35 | 1245.75 | 1231.16 | 1216.56
x2 = 0.05 | 1247.73 | 1233.53 | 1219.2 | 1204.74
x2 = 0.15 | 1223.15 | 1209.44 | 1195.6 | 1181.63
x2 = 0.25 | 1199.18 | 1185.91 | 1172.52 | 1159.01
x2 = 0.35 | 1175.98 | 1163.09 | 1150.11 | 1137.01
x2 = 0.45 | 1153.2 | 1140.69 | 1128.08 | 1115.36
x2 = 0.5 | 1142.13 | 1129.79 | 1117.34 | 1104.79
x2 = 0.55 | 1131.22 | 1119.02 | 1106.74 | 1094.34
x2 = 0.65 | 1109.63 | 1097.72 | 1085.72 | 1073.62
x2 = 0.75 | 1088.81 | 1077.13 | 1065.38 | 1053.55
x2 = 0.85 | 1068.59 | 1057.12 | 1045.59 | 1033.98
x2 = 0.95 | 1048.8 | 1037.49 | 1026.13 | 1014.72

ClCCCl [1,2-dichloroethane] + CC(C)O
mass density [kg/m3], [1]
Conditions | 288.15 K | 298.15 K | 308.15 K | 318.15 K
x2 = 0 | 1260.35 | 1245.75 | 1231.16 | 1216.56
x2 = 0.05 | 1235.77 | 1221.42 | 1206.94 | 1192.32
x2 = 0.15 | 1188.35 | 1174.26 | 1160 | 1145.58
x2 = 0.25 | 1141.45 | 1127.77 | 1113.89 | 1099.81
x2 = 0.35 | 1094.84 | 1081.66 | 1068.25 | 1054.61
x2 = 0.45 | 1048.69 | 1036.08 | 1023.22 | 1010.09
x2 = 0.5 | 1025.43 | 1013.12 | 1000.56 | 987.72
x2 = 0.55 | 1001.94 | 989.96 | 977.71 | 965.17
x2 = 0.65 | 955.61 | 944.31 | 932.73 | 920.85
x2 = 0.75 | 908.94 | 898.38 | 887.54 | 876.36
x2 = 0.849 | 862.18 | 852.45 | 842.41 | 832.03
x2 = 0.949 | 814.66 | 805.84 | 796.72 | 787.26
x2 = 0.95 | 814.18 | 805.36 | 796.25 | 786.79

C1COCCO1 [1,4-dioxane] + CCCO
mass density, [1]
Conditions | 288.15 K | 298.15 K | 308.15 K | 318.15 K
x1 = 0.05 | 820.78 kg/m3 | 812.62 kg/m3 | 804.33 kg/m3 | 795.88 kg/m3
x1 = 0.15 | 846.12 kg/m3 | 837.54 kg/m3 | 828.82 kg/m3 | 819.95 kg/m3
x1 = 0.249 | 870.65 kg/m3 | 861.62 kg/m3 | 852.49 kg/m3 | 843.22 kg/m3
x1 = 0.35 | 894.72 kg/m3 and 894.75 kg/m3 | 885.38 kg/m3 and 885.41 kg/m3 | 875.91 kg/m3 and 875.94 kg/m3 | 866.3 kg/m3 and 866.33 kg/m3
x1 = 0.45 | 918.23 kg/m3 | 908.54 kg/m3 | 898.73 kg/m3 | 888.78 kg/m3
x1 = 0.496 | 928.74 kg/m3 | 918.89 kg/m3 | 908.94 kg/m3 | 898.85 kg/m3
x1 = 0.55 | 941.07 kg/m3 and 941.11 kg/m3 | 931.06 kg/m3 and 931.09 kg/m3 | 920.95 kg/m3 and 920.97 kg/m3 | 910.71 kg/m3 and 910.73 kg/m3
x1 = 0.65 | 963.51 kg/m3 | 953.2 kg/m3 | 942.79 kg/m3 | 932.28 kg/m3
x1 = 0.75 | 985.54 kg/m3 and 985.58 kg/m3 | 974.94 kg/m3 and 974.98 kg/m3 | 964.26 kg/m3 and 964.29 kg/m3 | 953.5 kg/m3 and 953.51 kg/m3
x1 = 0.849 | 1006.97 kg/m3 | 996.12 kg/m3 | 985.2 kg/m3 | 974.19 kg/m3
x1 = 0.948 | 1028.13 kg/m3 | 1017.05 kg/m3 | 1005.9 kg/m3 | 994.68 kg/m3
x1 = 0.95 | 1028.45 kg/m3 | 1017.36 kg/m3 | 1006.21 kg/m3 | 995 kg/m3
x1 = 1 | 1039.12 kg/m3 | 1027.84 kg/m3 | 1016.57 kg/m3 | 1005.29 kg/m3

ClCCCl [1,2-dichloroethane] + CCCO
mass density, [1]
Conditions | 288.15 K | 298.15 K | 308.15 K | 318.15 K
x2 = 0 | 1260.35 kg/m3 | 1245.75 kg/m3 | 1231.16 kg/m3 | 1216.56 kg/m3
x2 = 0.026 | 1248.39 kg/m3 | 1234.01 kg/m3 | 1219.5 kg/m3 | 1204.86 kg/m3
x2 = 0.05 | 1237.53 kg/m3 and 1237.37 kg/m3 | 1223.22 kg/m3 and 1223.08 kg/m3 | 1208.79 kg/m3 and 1208.64 kg/m3 | 1194.22 kg/m3 and 1194.08 kg/m3
x2 = 0.1 | 1215.38 kg/m3 | 1201.26 kg/m3 | 1187.01 kg/m3 | 1172.6 kg/m3
x2 = 0.122 | 1205.69 kg/m3 | 1191.67 kg/m3 | 1177.5 kg/m3 | 1163.18 kg/m3
x2 = 0.149 | 1193.33 kg/m3 | 1179.47 kg/m3 | 1165.44 kg/m3 | 1151.24 kg/m3
x2 = 0.25 | 1149.08 kg/m3 | 1135.78 kg/m3 | 1122.28 kg/m3 | 1108.59 kg/m3
x2 = 0.35 | 1104.87 kg/m3 | 1092.18 kg/m3 | 1079.29 kg/m3 | 1066.19 kg/m3
x2 = 0.45 | 1060.3 kg/m3 | 1048.27 kg/m3 | 1036.04 kg/m3 | 1023.57 kg/m3
x2 = 0.55 | 1015.43 kg/m3 | 1004.09 kg/m3 | 992.55 kg/m3 | 980.78 kg/m3
x2 = 0.645 | 972.3 kg/m3 | 961.66 kg/m3 | 950.81 kg/m3 | 939.73 kg/m3
x2 = 0.75 | 924.58 kg/m3 | 914.71 kg/m3 | 904.65 kg/m3 | 894.38 kg/m3
x2 = 0.85 | 878.59 kg/m3 | 869.49 kg/m3 | 860.21 kg/m3 | 850.73 kg/m3
x2 = 0.899 | 855.66 kg/m3 | 846.93 kg/m3 | 838.05 kg/m3 | 828.97 kg/m3
x2 = 0.95 | 831.69 kg/m3 | 823.36 kg/m3 | 814.89 kg/m3 | 806.24 kg/m3
x2 = 0.974 | 820.39 kg/m3 | 812.24 kg/m3 | 803.95 kg/m3 | 795.49 kg/m3
x2 = 0.975 | 819.73 kg/m3 | 811.6 kg/m3 | 803.33 kg/m3 | 794.89 kg/m3
